Data on 10 molecules can be found in patent US5998666A, “Phenoxyethylamine derivatives, method of preparation, application as medicine and pharmaceutical compositions containing same” (Societe de Conseils de Recherches Et d'Applications …, priority 1996, dated 1999).

pKi: −log10 of the molar value.

This test has as its target T1, 5-HT1A receptor (Rattus norvegicus, UniProt P19327).
T1 construct: from tissue; host or cells: cerebral cortex membranes of male Sprague Dawley rats
T1 sequence (P19327 1-422): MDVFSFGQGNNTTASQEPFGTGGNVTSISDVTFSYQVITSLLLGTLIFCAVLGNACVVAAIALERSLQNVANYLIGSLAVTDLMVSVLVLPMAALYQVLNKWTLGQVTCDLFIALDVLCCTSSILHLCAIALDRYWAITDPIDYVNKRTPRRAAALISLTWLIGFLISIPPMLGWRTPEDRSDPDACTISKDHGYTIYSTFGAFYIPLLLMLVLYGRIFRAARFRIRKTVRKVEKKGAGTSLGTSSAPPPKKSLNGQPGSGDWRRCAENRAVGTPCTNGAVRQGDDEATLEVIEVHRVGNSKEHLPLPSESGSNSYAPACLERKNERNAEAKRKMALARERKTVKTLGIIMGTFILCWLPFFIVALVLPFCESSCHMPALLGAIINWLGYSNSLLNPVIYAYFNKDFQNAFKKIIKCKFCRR
The test is described as follows: Affinity for 5-HT1A receptor: inhibition of [3H]8-OH-DPAT binding to rat cerebral cortex membranes. The settings on record: [3H]8-OH-DPAT (1 nM), 30 min at 25° C., Tris-HCl 50 mM, pH=7.4. The protocol:
The affinity of the compounds for serotonergic 5-HT1A receptors is determined by measuring the inhibition of [3H]8-hydroxy-2-(di-n-propylaminotetralin ([3H]8-OH-DPAT) bound to the cerebral cortex of the rat, according to the method of Peroutka and his coworkers [(J. Neurochem., 47, 529 (1986)].
Cerebral cortices of male Sprague Dawley rats are homogenised in Tris-HCl 50 mM, pH=7.4 and centrifuged at 40,000 g for 10 min at 4° C. Pellets are resuspended in the same buffer and incubated for 10 min at 37° C., and the homogenised products are centrifuged again at 40,000 g for 10 min at 4° C.
Competitive inhibition tests of [3H]8-OH-DPAT binding are carried out three times with unlabelled competitors, with concentrations between 100 pM and 100 μM. Cerebral cortex membranes of rats (10 mg wet weight/ml) are incubated with [3H]8-OH-DPAT (1 nM) for 30 min at 25° C. in Tris-HCl 50 mM, pH=7.4 containing 4 mM of CaCl2, […] of paragyline and 0.1% of ascorbic acid.
The bound [3H]8-OH-DPAT is separated from free [3H]8-OH-DPAT by immediate filtration by means of Whatman GF/B glass fibre filters using a Brandel cell recovery device. The filters are washed three times with the same buffer at 0-4° C. and their radioactivity is studied by means of a liquid scintillation spectrometer.
The specific binding is obtained by subtracting the binding determined in the presence of […] of 8-OH-DPAT from the total binding. The characteristics of the binding are analysed by iterative analysis of the non-linear regression by computer, using the Ligand program [Munson and Rodbard, Anal. Biochem., 107, 220 (1980)].

As a reminder, the pKi is −log10 of the Ki, conventionally taken in molar units. Read a low pKi as a high Ki.

`NC(=O)Nc1cccc(OCCNCCCCC(=O)NC2CCCCCC2)c1` [Compound 10, N-cyclcoheptyl-5-[{2-(3-(aminocarbonylamino)phenoxy)ethyl}amino]pentanamide] showed a pKi of 9.89.
The same measure for `COC(=O)Nc1cccc(OCCNCCCCC(=O)NCC(C)(C)C)c1` [Compound 13, N-neopentyl-5-[{2-(3-(methoxycarbonylamino)phenoxy)ethyl}amino]pentanamide]: 9.08.
The same measure for `CC(C)(C)CNC(=O)CCCCNCCOc1cccc(NC(N)=O)c1` [Compound 9, N-neopentyl-5-[{2-(3-(aminocarbonylamino)phenoxy)ethyl}-amino]pentanamide]: 9.39; for `COc1ccccc1OCCNCCCCC(=O)NC1CCCC1` [Compound 4, N-cyclopentyl-5-[{2-(2-methoxyphenoxy)ethyl}amino]pentanamide]: 9.54.
In the case of `COc1ccccc1OCCNCCCCC(=O)NC1CCCCC1` [Compound 2, N-cyclohexyl-5-[{2-(2-methoxyphenoxy)ethyl}amino]pentanamide] it was 9.72; in that of `CC(=O)Nc1cccc(OCCNCCCCC(=O)NC2CCCCC2)c1` [Compound 11, N-cyclohexyl-5-[{2-(3-(methylcarbonylamino)phenoxy)ethyl}amino]pentanamide], 9.43.
`COc1ccccc1OCCNCCCCC(=O)NCC(C)(C)C` [Compound 3, N-neopentyl-5-[{2-(2-methoxyphenoxyl)ethyl}amino]pentanamide]: the pKi was 9.49.
In the case of `COc1ccccc1OCCNCCCCC(=O)NC1CCCCCC1` [Compound 5, N-cycloheptyl-5-[{2-(2-methoxyphenoxy)ethyl}amino]pentanamide] it was 10.01.
Consider `COc1ccccc1OCCNCCCCC(=O)NC(C)(C)C` [Compound 1, N-tert-butyl-5-[{2-(2-methoxyphenoxy)ethyl}amino]pentanamide], for which the pKi was 9.27.
`CC(=O)Nc1cccc(OCCNCCCCC(=O)NCC(C)(C)C)c1` [Compound 12, N-neopentyl-5-[{2-(3-(methylcarbonylamino)phenoxy)ethyl}-amino]pentanamide] had a pKi of 9.06.
